Test results as given in patent publication US12569498B2, “Methods and compositions for the prevention and treatment of ischemia reperfusion injury and infection” (CHILDREN'S NATIONAL MEDICAL CENTER, priority 2019, dated 2026).
Entries after “also recorded” stand apart in the source; their conditions may differ.

Experiments:
[1] = Renal scar formation and trichrome collagen quantification after acute pyelonephritis; type: in vivo, C3H/HeOuJ mice
Method: To initiate pyelonephritis, the bladder was catheterized with a 24-gauge angiocatheter and a total volume of 100 μL of a phosphate-buffered saline containing […] colony forming units (CFU) of CFT073 uropathogenic Escherichia coli (UPEC) was then instilled.
Tissues were preserved in formalin for 72 hours then stored in ethanol. Sections were cut to a 5 μm thickness and stained with H&E or Masson trichrome. Photographs were obtained at 20× resolution with Olympus VS120 virtual slide microscope system. The images were then analyzed with ImageJ Fiji software in order to quantify collagen deposition as previously described (Chen 2017). As collagen deposition would be expected as long-term sequelae of IRI, the trichrome stains of the long-term specimen were examined. All artifacts from the staining process as well as gross collecting system were cropped from these images prior to analysis. A color deconvolution plugin was used to separate the trichrome images into the separate colors. Analysis was performed based upon the percentage of deposition of collagen in the green image compared to the overall area of the kidneys.
Tissues harvested 21 days following completion of antibiotic therapy were subjected to trichome staining to assess for global collagen deposition. After removing artifacts (to ensure only parenchyma was included in the analysis), a color deconvolution plugin was used for ImageJ to divide the images into the respective three colors of the trichrome stain. A threshold was set and collagen was quantified as a percentage of green color in respect to the area of the entire kidney (FIG. 13).

[2] = molecular target: α4β2nAChR (Homo sapiens, UniProt P17787+P43681); conditions: systemic concentrations found with routine oral dosing in humans (Campling 2013); cited from earlier work
[3] = Warm ischemia of the hindlimb (flow cytometry, quantitative PCR, trichrome staining); type: in vivo; conditions: vs untreated controls
[4] = Masson trichrome staining and ImageJ quantification of collagen in testis 30 days after torsion; type: in vivo, CD1 mice; conditions: 30 days following torsion, vs untreated, cytisine p<0.01, varenicline p<0.0001
Method: (§1) Mice underwent testicular torsion as previously described (Lysiak 2001). Briefly, mice were anesthetized with isoflurane over a heating pad. The right testis was delivered through a low scrotal incision and rotated counterclockwise 720 degrees to induce ischemia for 2 hours. […] All animals were injected with long-acting buprenorphine (0.1 mg/kg) for long-term pain control prior to being recovered from anesthesia. Mice were euthanized either 18 hours or 30 days following torsion. Mice kept for 30 days after surgery were weighed on a weekly basis.
(§2) Cytisine (Sigma-Aldrich, St. Louis, MO) was administered intraperitoneally at a dose of 0.1 μg/gram either 1 hour before torsion or 1 hour after torsion (1 hour prior to detorsion). Varenicline ([…]) was administered as an intraperitoneal injection one hour after the onset of torsion and then continued every 12 hours for a total of 4 doses.
Testis tissue was harvested and stored in 70% ethanol. Fixation, embedding, sectioning, and staining were performed by the research pathology core at George Washington University. Sections were cut at a thickness of […]. Tissues were stained for H&E or Masson trichrome. Photographs were scanned at 20× resolution with Olympus VS120 virtual slide microscope system. TIF images were analyzed with ImageJ Fiji software as previously described (Caetano, Fronza et al. 2016). The color deconvolution plugin was used to perform ImageJ analysis on an area measuring 3000 square pixels. Automatic thresholding was performed. The amount of collagen in each area is expressed as the percentage of blue pixels in the image area taken as an average of 3 non-overlapping measurements.

[5] = mice (Obach 2006); cited from earlier work
[6] = test system: pro-fibrotic genes Col1, Col3, Vim, SMA; test: RT-PCR of pro-fibrotic markers in testis 30 days after torsion; type: in vivo, CD1 mice; conditions: for relative expression of collagen 1 (Col1) / relative expression of collagen 3 (Col3) / relative expression of smooth muscle actin (Sma) / relative expression of vimentin (Vim): 30 days following torsion, vs untreated
Method: as §1, §2
(§3) RNA was isolated from testis tissue using RNEasy mini kit (Qiagen, Hilden, Germany) using the manufacturer's protocol. RNA concentration was measured with Nanodrop 8000 (Thermo Scientific, Waltham, MA). cDNA was synthesized using Superscript First-Strand Synthesis system for RT-PCR (Invitrogen, Carlsbad, CA) on a GeneAmp PCR System 9700 (Applied Biosystems, Foster City, CA) Real-Real-time PCR was performed using QuantStudio 7 Flex (Applied Biosystems, Foster City, CA). Software Quantstudio Real-Time PCR Software (Thermo Fisher Scientific, Waltham, MA). TaqMan Gene Expression Assays (Applied Biosystems, Foster City, CA). Standard TaqMan primers were used for Col1, Col3, Vim, SMA.

[7] = test system: NFKB targets (TLR4, NLRP3, Trim63, Fbxo32); test: RT-PCR of downstream NFKB target genes after testicular torsion; type: in vivo, CD1 mice; conditions: testis, 18 hours following testicular torsion
Method: as §1, §2, §3
NFKB signaling results in the upregulation of several downstream targets, which propagate the inflammatory cascade. To determine if varenicline administration reduced activation of the NFKB axis, quantitative PCR of established downstream NFKB targets was performed.

α4β2nAChR, sequence (P43681 29-627 limits assumed): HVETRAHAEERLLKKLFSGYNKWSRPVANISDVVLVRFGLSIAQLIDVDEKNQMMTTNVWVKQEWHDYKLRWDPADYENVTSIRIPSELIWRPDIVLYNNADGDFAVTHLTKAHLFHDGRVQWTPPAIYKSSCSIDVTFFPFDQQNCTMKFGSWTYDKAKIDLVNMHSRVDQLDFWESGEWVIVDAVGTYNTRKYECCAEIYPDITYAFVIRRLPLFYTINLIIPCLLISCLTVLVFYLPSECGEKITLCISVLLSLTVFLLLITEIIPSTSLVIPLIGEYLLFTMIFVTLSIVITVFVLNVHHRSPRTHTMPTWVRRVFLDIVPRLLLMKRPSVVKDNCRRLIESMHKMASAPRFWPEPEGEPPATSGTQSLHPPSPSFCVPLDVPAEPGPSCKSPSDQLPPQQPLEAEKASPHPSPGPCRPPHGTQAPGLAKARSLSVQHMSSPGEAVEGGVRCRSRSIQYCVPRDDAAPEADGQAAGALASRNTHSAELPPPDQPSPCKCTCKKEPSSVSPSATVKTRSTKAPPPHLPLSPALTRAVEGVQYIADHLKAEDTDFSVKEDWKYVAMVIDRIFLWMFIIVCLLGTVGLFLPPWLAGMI
α4β2nAChR, sequence (P17787 26-502): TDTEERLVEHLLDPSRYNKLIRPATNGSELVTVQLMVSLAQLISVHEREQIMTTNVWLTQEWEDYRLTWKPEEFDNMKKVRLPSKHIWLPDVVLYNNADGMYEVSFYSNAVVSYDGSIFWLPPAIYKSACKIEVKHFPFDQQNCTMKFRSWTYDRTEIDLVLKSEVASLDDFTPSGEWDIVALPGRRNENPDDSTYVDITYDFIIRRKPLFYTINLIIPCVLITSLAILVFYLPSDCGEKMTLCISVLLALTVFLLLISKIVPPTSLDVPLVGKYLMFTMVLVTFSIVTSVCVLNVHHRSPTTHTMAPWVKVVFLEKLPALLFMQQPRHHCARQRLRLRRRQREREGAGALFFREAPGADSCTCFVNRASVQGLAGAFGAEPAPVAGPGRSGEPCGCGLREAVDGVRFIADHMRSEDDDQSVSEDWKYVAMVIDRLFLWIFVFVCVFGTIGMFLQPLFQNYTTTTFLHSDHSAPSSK

c1cnc2cc3c(cc2n1)C1CNCC3C1 [varenicline, 7,8,9, 10-tetrahydro-6, 10-methano-6H-pyrazino[2,3-h][3]benzazepine]
collagen deposition in the kidneys (percentage of green pigment per area of entire kidney) ([1]; 21 days following completion of antibiotic therapy, varenicline plus ceftriaxone vs ceftriaxone alone, p=0.001): significantly lower amount of collagen deposition; also recorded: long-term decrease in collagen deposition | incidence of renal scar formation and renal atrophy ([1]; 30 days following acute pyelonephritis, preliminary results): decreased | α4β2nAChR agonism [2]: strong α4β2nAChR and α7nAChR agonist | infiltration of leukocytes (flow cytometry) ([3]; 24 hours after warm ischemia of the hindlimb, P≤0.01): decreased infiltration of leukocytes | expression of pro-fibrotic genes (quantitative PCR) ([3]; 7 days after reperfusion of the limb): decreased expression of pro-fibrotic genes | collagen deposition in muscle fibers (trichrome staining) ([3]; 14 days following limb ischemia, P≤0.005): significant decrease in collagen deposition | collagen content of testis (trichrome staining, percentage of collagen) [4]: untreated group had significantly higher collagen content; also recorded: decreased histologic and genetic markers of testicular fibrosis | collagen content of testis (trichrome staining, percentage of collagen) ([4]; listed as Varenicline): significantly higher percentage of collagen in the untreated animals | half-life [5]: 1.4 h | relative expression of collagen 1 (Col1) [6]: reduced the expression; also recorded: significantly decreased | relative expression of collagen 3 (Col3) [6]: reduced the expression; also recorded: significantly decreased | relative expression of smooth muscle actin (Sma) [6]: reduced the expression; also recorded: significantly decreased | relative expression of vimentin (Vim) [6]: reduced the expression; also recorded: significantly decreased | relative expression of collagen 1 (Col1) ([6]; listed as Varenicline): significantly decreased | relative expression of collagen 3 (Col3) ([6]; listed as Varenicline): significantly decreased | relative expression of smooth muscle actin (Sma) ([6]; listed as Varenicline): significantly decreased | relative expression of vimentin (Vim) ([6]; listed as Varenicline): significantly decreased | expression of pro-fibrotic genes / genetic markers of testicular fibrosis ([6]; long term (30 day) outcome, genes not itemised): decreased histologic and genetic markers of testicular fibrosis | expression of Fbxo32 ([7]; p<0.0001): significantly decreased the expression | expression of TLR4 ([7]; p<0.01): significantly decreased the expression | expression of NLRP3 ([7]; p<0.05): significantly decreased the expression | expression of Trim63 ([7]; p≤0.034): significantly decreased the expression
